In US20240115547A1, “PSYCHOTROPIC AGENTS AND USES THEREOF” (LB PHARMACEUTICALS INC., priority 2021, published 2024):

System: Dopamine (e.g., D2/D3)
Assay: Dopamine RO % by raclopride PET after LB-102, various dosage regimens (Example 3)
Assay type: in vivo, human
Settings: for Dopamine RO % (Caudate + Putamen): group mean
Protocol: Healthy subjects were dosed orally with LB102 of 50 mg QD (n=4), 75 mg QD (n=4), 100 mg QD (n=4), 50 mg SS (n=2), or 100 mg SS (n=2). Subjects were, on average, 33 years old. Subjects dosed QD were given a single dose on day 1 after which PET scans were obtained; and subjects dosed SS, i.e., steady state, were dosed once a day for 4 days and PET scans were obtained after dosing on Day 4.
Dynamic […] raclopride PET scans were obtained 0 h, 2.5 h, 7.5 h, and 23.5 h after LB-102 administration for the 50 mg and 100 mg QD treatment groups and after LB-102 administration of Day 4 for the 50 mg SS and 100 mg SS treatment groups; and 0 h, 3.5 h, 23.5 h, and 47.5 h after LB-102 administration for the 75 mg QD treatment group. Dopamine % RO were calculated using the STRM method (https://pubmed.ncbi.nlm.nih.gov/9345505/, which is incorporated herein by reference) and the combined RO % (average of caudate and putamen RO %) are shown as squares FIGS. 5A (50 mg QD), 5B (75 mg QD), 5C (100 mg QD); and FIGS. 6A (50 mg SS Day 4) and 6B (100 mg SS Day 4); and summarized in Table 3-A below.
Dynamic ^11C raclopride PET scan results for calculation of dopamine RO % were measured in caudate, putamen, thalamus, and temporal lobe of each subject tested, and are summarized in Tables 3-B to 3-F below.

[1] = 75 mg QD, Subject 3, 3.5 h after LB-102 admin.
[2] = 75 mg QD, Subject 3, 23.5 h after LB-102 admin.
[3] = 75 mg QD, Subject 3, 47.5 h after LB-102 admin.
[4] = 75 mg QD, Subject 4, 3.5 h after LB-102 admin.
[5] = 75 mg QD, Subject 4, 23.5 h after LB-102 admin.
[6] = 75 mg QD, Subject 4, 47.5 h after LB-102 admin.
[7] = 100 mg QD, Subject 1, 2.5 h after LB-102 admin.
[8] = 100 mg QD, Subject 1, 7.5 h after LB-102 admin.
[9] = 100 mg QD, Subject 1, 23.5 h after LB-102 admin.
[10] = 100 mg QD, Subject 2, 2.5 h after LB-102 admin.
[11] = 100 mg QD, Subject 2, 7.5 h after LB-102 admin.
[12] = 100 mg QD, Subject 2, 23.5 h after LB-102 admin.
[13] = 100 mg QD, Subject 3, 2.5 h after LB-102 admin.
[14] = 100 mg QD, Subject 3, 7.5 h after LB-102 admin.
[15] = 100 mg QD, Subject 3, 23.5 h after LB-102 admin.
[16] = 100 mg QD, Subject 4, 2.5 h after LB-102 admin.
[17] = 100 mg QD, Subject 4, 7.5 h after LB-102 admin.
[18] = 100 mg QD, Subject 4, 23.5 h after LB-102 admin.
[19] = 100 mg SS (Day 4), Subject 3, ~3 h after LB-102 admin.
[20] = 100 mg SS (Day 4), Subject 3, ~8 h after LB-102 admin.
[21] = 100 mg SS (Day 4), Subject 3, ~24 h after LB-102 admin.
[22] = 100 mg SS (Day 4), Subject 4, ~3 h after LB-102 admin.
[23] = 100 mg SS (Day 4), Subject 4, ~8 h after LB-102 admin.
[24] = 100 mg SS (Day 4), Subject 4, ~24 h after LB-102 admin.

CCN1CCCC1CNC(=O)c1cc(S(=O)(=O)CC)c(NC)cc1OC (stereo not shown) [LB-102]
Dopamine RO % Putamen [1]: 50%
Dopamine RO % Temporal lobe [1]: 28%
Dopamine RO % Thalamus [1]: 37%
Dopamine RO % Caudate [2]: 69%
Dopamine RO % Putamen [2]: 53%
Dopamine RO % Temporal lobe [2]: 20%
Dopamine RO % Thalamus [2]: 36%
Dopamine RO % Caudate [3]: 52%
Dopamine RO % Putamen [3]: 38%
Dopamine RO % Temporal lobe [3]: 16%
Dopamine RO % Thalamus [3]: 20%
Dopamine RO % Caudate [4]: 5%
Dopamine RO % Putamen [4]: 2%
Dopamine RO % Temporal lobe [4]: −2%
Dopamine RO % Thalamus [4]: 5%
Dopamine RO % Caudate [5]: 48%
Dopamine RO % Putamen [5]: 37%
Dopamine RO % Temporal lobe [5]: 27%
Dopamine RO % Thalamus [5]: 21%
Dopamine RO % Caudate [6]: 13%
Dopamine RO % Putamen [6]: 12%
Dopamine RO % Temporal lobe [6]: −6%
Dopamine RO % Thalamus [6]: −25%
Dopamine RO % (Caudate + Putamen) (100 mg QD, 0 h after LB-102 administration): 0%
Dopamine RO % (Caudate + Putamen) (100 mg QD, 3 h after LB-102 administration): 41%
Dopamine RO % (Caudate + Putamen) (100 mg QD, 8 h after LB-102 administration): 70%
Dopamine RO % (Caudate + Putamen) (100 mg QD, 24 h after LB-102 administration): 69%
Dopamine RO % Caudate [7]: 39%
Dopamine RO % Putamen [7]: 32%
Dopamine RO % Temporal lobe [7]: 18%
Dopamine RO % Thalamus [7]: 28%
Dopamine RO % Caudate [8]: 75%
Dopamine RO % Putamen [8]: 67%
Dopamine RO % Temporal lobe [8]: 24%
Dopamine RO % Thalamus [8]: 40%
Dopamine RO % Caudate [9]: 76%
Dopamine RO % Putamen [9]: 68%
Dopamine RO % Temporal lobe [9]: 13%
Dopamine RO % Thalamus [9]: 26%
Dopamine RO % Caudate [10]: 56%
Dopamine RO % Putamen [10]: 52%
Dopamine RO % Temporal lobe [10]: 17%
Dopamine RO % Thalamus [10]: 42%
Dopamine RO % Caudate [11]: 78%
Dopamine RO % Putamen [11]: 75%
Dopamine RO % Temporal lobe [11]: 17%
Dopamine RO % Thalamus [11]: 49%
Dopamine RO % Caudate [12]: 72%
Dopamine RO % Putamen [12]: 66%
Dopamine RO % Temporal lobe [12]: 22%
Dopamine RO % Thalamus [12]: 43%
Dopamine RO % Caudate [13]: 50%
Dopamine RO % Putamen [13]: 46%
Dopamine RO % Temporal lobe [13]: 20%
Dopamine RO % Thalamus [13]: 34%
Dopamine RO % Caudate [14]: 84%
Dopamine RO % Putamen [14]: 77%
Dopamine RO % Temporal lobe [14]: 24%
Dopamine RO % Thalamus [14]: 46%
Dopamine RO % Caudate [15]: 76%
Dopamine RO % Putamen [15]: 69%
Dopamine RO % Temporal lobe [15]: 22%
Dopamine RO % Thalamus [15]: 39%
Dopamine RO % Caudate [16]: 26%
Dopamine RO % Putamen [16]: 25%
Dopamine RO % Temporal lobe [16]: 10%
Dopamine RO % Thalamus [16]: 31%
Dopamine RO % Caudate [17]: 55%
Dopamine RO % Putamen [17]: 49%
Dopamine RO % Temporal lobe [17]: 15%
Dopamine RO % Thalamus [17]: 49%
Dopamine RO % Caudate [18]: 68%
Dopamine RO % Putamen [18]: 56%
Dopamine RO % Temporal lobe [18]: 15%
Dopamine RO % Thalamus [18]: 39%
Dopamine RO % Caudate [19]: 84%
Dopamine RO % Putamen [19]: 80%
Dopamine RO % Temporal lobe [19]: 19%
Dopamine RO % Thalamus [19]: 50%
Dopamine RO % Caudate [20]: 86%
Dopamine RO % Putamen [20]: 83%
Dopamine RO % Temporal lobe [20]: 18%
Dopamine RO % Thalamus [20]: 51%
Dopamine RO % Caudate [21]: 80%
Dopamine RO % Putamen [21]: 73%
Dopamine RO % Temporal lobe [21]: 23%
Dopamine RO % Thalamus [21]: 48%
Dopamine RO % Caudate [22]: 88%
Dopamine RO % Putamen [22]: 79%
Dopamine RO % Temporal lobe [22]: 32%
Dopamine RO % Thalamus [22]: 78%
Dopamine RO % Caudate [23]: 89%
Dopamine RO % Putamen [23]: 80%
Dopamine RO % Temporal lobe [23]: 25%
Dopamine RO % Thalamus [23]: 80%
Dopamine RO % Caudate [24]: 83%
Dopamine RO % Putamen [24]: 72%
Dopamine RO % Temporal lobe [24]: 31%
Dopamine RO % Thalamus [24]: 69%
Dopamine RO % (Caudate + Putamen) (100 mg SS (once a day for 4 days), 3 h after Day 4 administration): 88%
Dopamine RO % (Caudate + Putamen) (100 mg SS (once a day for 4 days), 8 h after Day 4 administration): 82%
Dopamine RO % (Caudate + Putamen) (100 mg SS (once a day for 4 days), 24 h after Day 4 administration): 76%
dopamine RO after plasma concentration dropped (after combined plasma concentration of LB-102 and amisulpride dropped sub 10 ng/mL): persisted significantly
